These results are taken from ChEMBL document CHEMBL1201862, “PubChem BioAssay data set” (2004).

Structures are written as SMILES.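 1) Cells in 96-well plates. 2) Compound, 48 h, 5 concentrations. 3) Linear interpolation between surrounding doses. 4) Unreached endpoint = highest concentration. Abbreviation: GI50, concentration required for 50% inhibition of growth.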 The source made the active and inactive calls. No stated cut-off is given here; in the data, active = GI50 up to about 1.1 µM and inactive = higher.

Some test systems named below: HCT-116; RPMI-8226; IGROV-1; RXF 393; UACC-257; ACHN; SW-620; SNB-19; UO-31; SF-295; TK-10; SK-MEL-5; OVCAR-5; UACC-62; OVCAR-3; CAKI-1; SN12C; LOX IMVI; COLO 205.
What all share (assay): growth of human tumour cells (NCI), 48 h

With `N#CC1(C#N)C(C#N)(C#N)C12CCCCCC2`, the GI50 in the assay on HCT-116 was 5.01 µM (inactive); in the assay with RPMI-8226 it was 3.28 µM (inactive); in the assay on IGROV-1, 40.2 µM (inactive); in the assay on RXF 393 it was 10.4 µM (inactive); with UACC-257 it was 13.9 µM (inactive); in the assay with ACHN, 11.1 µM (inactive). Also, the GI50 with SW-620 is 1.95 µM (inactive); with SNB-19, 29.4 µM (inactive); with UO-31, 18.5 µM (inactive); in the assay on SF-295 it was > 39.7 µM (inactive); in the assay on TK-10, 16.8 µM (inactive); with SK-MEL-5, 18 µM (inactive). Besides, the GI50 is 16.4 µM (inactive) in the assay with OVCAR-5; 12.9 µM (inactive) with UACC-62; 16.1 µM (inactive) in the assay on OVCAR-3; 12.2 µM (inactive) with CAKI-1; 18.1 µM (inactive) with SN12C; 16.7 µM (inactive) in the assay with LOX IMVI. For the same molecule, the GI50 in the assay with COLO 205 is 15.7 µM (inactive).

In the case of `O=C(/C=C/c1c(O)ccc2ccccc12)c1cccc2ccccc12`, the GI50 in the assay on HCT-116 was 57.7 µM (inactive); in the assay with RPMI-8226, 42.1 µM (inactive); with IGROV-1 it was > 100 µM (inactive); with RXF 393 it was > 100 µM (inactive); in the assay on UACC-257 it was > 100 µM (inactive); with ACHN, > 100 µM (inactive). Further, the GI50 in the assay on SW-620 is > 37.1 µM (inactive); with SNB-19, > 89.5 µM (inactive); with UO-31, 34 µM (inactive); in the assay with SF-295 it was > 100 µM (inactive); with TK-10, > 100 µM (inactive); in the assay with SK-MEL-5, > 100 µM (inactive). In addition, the GI50 in the assay with OVCAR-5 was > 100 µM (inactive); in the assay with UACC-62, > 100 µM (inactive); in the assay on OVCAR-3 it was > 100 µM (inactive); in the assay on CAKI-1 it was > 100 µM (inactive); in the assay on SN12C it was > 100 µM (inactive); in the assay with LOX IMVI, > 59 µM (inactive). Moreover, the GI50 in the assay with COLO 205 is > 100 µM (inactive).

Take `COc1cccc2c1C(=O)c1c(O)c3c(c(O)c1C2=O)C[C@@](O)(C(C)=O)CC3S(=O)(=O)O` (some centres undefined): the GI50 with HCT-116, with RPMI-8226, in the assay with IGROV-1, in the assay on RXF 393, in the assay with UACC-257 and in the assay on ACHN was > 100 µM (inactive) throughout. For the same molecule, the GI50 in the assay on SW-620, in the assay with SNB-19, in the assay with UO-31, in the assay with SF-295, in the assay with TK-10 and in the assay with SK-MEL-5 was > 100 µM (inactive) each time. Moreover, the GI50 in the assay on OVCAR-5, in the assay with UACC-62, in the assay on OVCAR-3, with CAKI-1, in the assay on SN12C and in the assay on LOX IMVI was > 100 µM (inactive) throughout. In addition, the GI50 in the assay with COLO 205 is > 100 µM (inactive).

As for `CC(C)c1cccc(C(C)C)c1NC(=O)C(=O)C1CCC2=C(Sc3ccccc3N2)C1=O` (centres undefined), the GI50 was 48.9 µM (inactive) in the assay on HCT-116; 44.4 µM (inactive) with RPMI-8226; > 100 µM (inactive) in the assay with IGROV-1; > 100 µM (inactive) with RXF 393; 67.3 µM (inactive) in the assay on UACC-257; > 100 µM (inactive) with ACHN. In addition, the GI50 in the assay on SW-620 was 12 µM (inactive); in the assay with SNB-19, > 100 µM (inactive); in the assay with UO-31, > 100 µM (inactive); in the assay with SF-295 it was 80.5 µM (inactive); in the assay with TK-10 it was > 100 µM (inactive); with SK-MEL-5, 56.2 µM (inactive). Moreover, the GI50 was 41.5 µM (inactive) in the assay on OVCAR-5; > 100 µM (inactive) in the assay with UACC-62; > 100 µM (inactive) in the assay with OVCAR-3; 64.4 µM (inactive) in the assay with CAKI-1; 28.8 µM (inactive) in the assay with SN12C; 53.6 µM (inactive) with LOX IMVI. The GI50 in the assay with COLO 205 is 24.4 µM (inactive).

With `CC1=C[C@]2(O)C(=O)[C@H](C)C[C@H]3[C@@H](CC[C@@](C)(O)/C=C\2C1=O)C3(C)C`, the GI50 in the assay on HCT-116 was 17.2 µM (inactive); with RPMI-8226 it was > 41.9 µM (inactive); in the assay with IGROV-1 it was 23.4 µM (inactive); with RXF 393 it was 15.4 µM (inactive); in the assay on UACC-257, 17.4 µM (inactive); in the assay on ACHN, 22.4 µM (inactive). The GI50 is 19.4 µM (inactive) in the assay on SW-620; 60.7 µM (inactive) with SNB-19; 62.5 µM (inactive) in the assay on UO-31; 24.5 µM (inactive) with SF-295; 32 µM (inactive) in the assay with TK-10; 21.6 µM (inactive) in the assay with SK-MEL-5. The GI50 in the assay with OVCAR-5 was > 76.7 µM (inactive); with UACC-62, 16 µM (inactive); in the assay with OVCAR-3 it was 19.7 µM (inactive); with CAKI-1, 25.4 µM (inactive); in the assay with SN12C, 20.3 µM (inactive); with LOX IMVI, 17.3 µM (inactive). Also, the GI50 in the assay on COLO 205 is 16.7 µM (inactive).

With `Cc1cc(C)nc(NS(=O)(=O)c2ccc(Nc3c4ccccc4nc4c(C(=O)Nc5ccc(S(=O)(=O)Nc6cc(C)on6)cc5)cccc34)cc2)n1`, the GI50 with HCT-116 was 16 µM (inactive); in the assay on RPMI-8226, 22 µM (inactive); in the assay with IGROV-1, 30.4 µM (inactive); in the assay on RXF 393, 20.9 µM (inactive); in the assay with UACC-257, 25.5 µM (inactive); in the assay on ACHN, 35.2 µM (inactive). Besides, the GI50 was 23.4 µM (inactive) in the assay on SW-620; 24.2 µM (inactive) with SNB-19; 26.4 µM (inactive) in the assay with UO-31; 22.8 µM (inactive) in the assay with SF-295; 26.8 µM (inactive) in the assay with TK-10; 18.7 µM (inactive) in the assay on SK-MEL-5. Besides, the GI50 with OVCAR-5 was 24.3 µM (inactive); with UACC-62 it was 17.8 µM (inactive); in the assay with OVCAR-3, 17.7 µM (inactive); in the assay on CAKI-1, 21.9 µM (inactive); in the assay with SN12C, 24.5 µM (inactive); in the assay with LOX IMVI it was 19.8 µM (inactive). Also, in the assay on COLO 205, the GI50 was 17.7 µM (inactive).

Regarding `CC1=CCC2(C#N)CCC1C2O` (centres undefined), the GI50 in the assay on HCT-116, in the assay on RPMI-8226, with IGROV-1, with RXF 393, in the assay on UACC-257 and in the assay with ACHN was > 100 µM (inactive) throughout. The GI50 in the assay on SNB-19, in the assay on UO-31, in the assay with SF-295, in the assay with TK-10, with SK-MEL-5 and with OVCAR-5 was > 100 µM (inactive) throughout. For the same molecule, the GI50 in the assay with UACC-62, in the assay on OVCAR-3, in the assay with CAKI-1, with SN12C, with LOX IMVI and in the assay with COLO 205 was > 100 µM (inactive) throughout.

For `CCC1(O)C[C@H]2CN(CCCc3c([nH]c4ccccc34)[C@@](C(=O)OC)(c3cc4c(cc3OC)N(C)C3[C@](O)(C(=O)OC)[C@H](OC(C)=O)[C@]5(CC)C=CCN6CC[C@]43[C@H]65)C2)C1` (some centres undefined), the GI50 with HCT-116 is 0.855 µM (active); with RPMI-8226, 0.908 µM (active); with IGROV-1, 2.88 µM (inactive); in the assay on RXF 393, 0.834 µM (active); with UACC-257, 1.34 µM (inactive); with ACHN it was > 2.92 µM (inactive). Besides, the GI50 in the assay with SW-620 was 0.497 µM (active); in the assay with SNB-19, 1.77 µM (inactive); in the assay with UO-31, 4.38 µM (inactive); with SF-295, 0.275 µM (active); in the assay on TK-10 it was > 10 µM (inactive); in the assay on SK-MEL-5 it was 0.333 µM (active). The GI50 is 3.34 µM (inactive) in the assay on OVCAR-5; 0.525 µM (active) with UACC-62; 0.281 µM (active) in the assay with OVCAR-3; 2.33 µM (inactive) in the assay on CAKI-1; 3.61 µM (inactive) in the assay on SN12C; 0.583 µM (active) with LOX IMVI. Besides, the GI50 in the assay with COLO 205 is 0.593 µM (active).

On to `ClC1CCC2OOC1O2` (centres undefined), for which the GI50 with HCT-116 is 61.1 µM (inactive); in the assay on RPMI-8226, > 100 µM (inactive); in the assay on IGROV-1, > 100 µM (inactive); with RXF 393, > 100 µM (inactive); in the assay on UACC-257 it was > 100 µM (inactive); with ACHN, > 100 µM (inactive). Besides, the GI50 with SW-620, in the assay with SNB-19, with UO-31, in the assay with SF-295, in the assay with TK-10 and in the assay on SK-MEL-5 was > 100 µM (inactive) throughout. Further, the GI50 with OVCAR-5 is > 100 µM (inactive); in the assay with UACC-62, 89.1 µM (inactive); in the assay on OVCAR-3 it was > 100 µM (inactive); in the assay with CAKI-1 it was > 100 µM (inactive); in the assay with SN12C, > 100 µM (inactive); in the assay with LOX IMVI, > 100 µM (inactive). Moreover, the GI50 in the assay on COLO 205 was > 100 µM (inactive).

Consider `CCC1CN2CCC3(c4ccccc4)CC(C(=O)OC)=CC1C23` (centres undefined), for which the GI50 was 15.9 µM (inactive) with HCT-116; 21.3 µM (inactive) in the assay on RPMI-8226; 20.4 µM (inactive) in the assay with IGROV-1; 18.3 µM (inactive) in the assay on RXF 393; 16.4 µM (inactive) in the assay on UACC-257; 16.6 µM (inactive) in the assay on ACHN. The GI50 in the assay with SW-620 is 16.9 µM (inactive); in the assay on SNB-19 it was 20.4 µM (inactive); in the assay with UO-31 it was 14.1 µM (inactive); in the assay on SF-295 it was 18.2 µM (inactive); in the assay with TK-10 it was 25.4 µM (inactive); in the assay with SK-MEL-5, 16.4 µM (inactive). Also, the GI50 is 5.6 µM (inactive) with OVCAR-5; 15.9 µM (inactive) in the assay on UACC-62; 19.2 µM (inactive) in the assay with OVCAR-3; 18.5 µM (inactive) with CAKI-1; 16.1 µM (inactive) with SN12C; 14.6 µM (inactive) in the assay with LOX IMVI. In addition, the GI50 with COLO 205 was 16.9 µM (inactive).
